# Assay results as given in paper PMC11956013, “Structure–Activity Relationships and Evaluation of 2-(Heteroaryl-cycloalkyl)-1H-indoles as Tauopathy Positron Emission Tomography Radiotracers” (Journal of Medicinal Chemistry, 2025).
# Columns and labels:
# A2B (h) = A2B (h) (Homo sapiens, UniProt P29275); assay: Eurofins panel: A2B (h) (antagonist radioligand); conditions: 1.0E-05 M
# [1] = target: GABAA (alpha1/beta2/gamma2) Human Ion Channel, Picrotoxinin site (Homo sapiens, UniProt P14867+P18507+P47870); assay: biochemical; format: binding
# p38alpha kinase (h) = p38alpha kinase (h) (Homo sapiens, UniProt Q16539); conditions: compound concentration 1.0E-05 M
# 5-HT3 (h) = 5-HT3 (h) (Homo sapiens, UniProt P46098); conditions: 1.0E-05 M; 5-HT3 (h) (antagonist radioligand)
# AMPA = assay: Eurofins panel: AMPA (agonist radioligand); format: binding; conditions: 1.0E-05 M; AMPA (agonist radioligand)
# IRK (h) (InsR) = IRK (h) (InsR) (Homo sapiens, UniProt P06213); assay: biochemical
# ETA (h) = ETA (h) (Homo sapiens, UniProt P25101); assay: biochemical
# 98 CNS protein targets = assay: Eurofins CNS SafetyScreen panel at 10 μM; format: binding; conditions: 10-μM concentration
# M5 (h) = target: T1, M5 (h) (Homo sapiens, UniProt P08912); assay: M5 (h) (antagonist radioligand), Eurofins assay 97
# T1 sequence (P08912 1-532): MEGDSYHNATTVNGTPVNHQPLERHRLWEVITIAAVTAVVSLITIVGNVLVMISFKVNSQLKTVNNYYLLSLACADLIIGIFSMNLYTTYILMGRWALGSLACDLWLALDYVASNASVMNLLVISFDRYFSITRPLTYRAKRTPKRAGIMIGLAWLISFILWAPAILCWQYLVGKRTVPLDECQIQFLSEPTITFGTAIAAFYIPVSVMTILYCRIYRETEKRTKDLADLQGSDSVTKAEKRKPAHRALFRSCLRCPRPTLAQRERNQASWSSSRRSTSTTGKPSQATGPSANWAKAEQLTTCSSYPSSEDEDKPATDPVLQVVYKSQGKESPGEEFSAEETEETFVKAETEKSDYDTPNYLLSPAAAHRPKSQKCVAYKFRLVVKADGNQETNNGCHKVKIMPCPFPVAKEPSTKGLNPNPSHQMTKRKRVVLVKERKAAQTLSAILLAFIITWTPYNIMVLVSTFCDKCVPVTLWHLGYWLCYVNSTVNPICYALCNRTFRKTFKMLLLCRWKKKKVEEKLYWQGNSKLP
# B2 (h) = B2 (h) (Homo sapiens, UniProt P30411); conditions: 1.0E-05 M; B2 (h) (agonist radioligand)
# [2] = target: norepinephrine transporter (h) (Homo sapiens, UniProt P23975); conditions: compound concentration 1.0E-05 M
# Sequence of norepinephrine transporter (h) (P23975 whole entry): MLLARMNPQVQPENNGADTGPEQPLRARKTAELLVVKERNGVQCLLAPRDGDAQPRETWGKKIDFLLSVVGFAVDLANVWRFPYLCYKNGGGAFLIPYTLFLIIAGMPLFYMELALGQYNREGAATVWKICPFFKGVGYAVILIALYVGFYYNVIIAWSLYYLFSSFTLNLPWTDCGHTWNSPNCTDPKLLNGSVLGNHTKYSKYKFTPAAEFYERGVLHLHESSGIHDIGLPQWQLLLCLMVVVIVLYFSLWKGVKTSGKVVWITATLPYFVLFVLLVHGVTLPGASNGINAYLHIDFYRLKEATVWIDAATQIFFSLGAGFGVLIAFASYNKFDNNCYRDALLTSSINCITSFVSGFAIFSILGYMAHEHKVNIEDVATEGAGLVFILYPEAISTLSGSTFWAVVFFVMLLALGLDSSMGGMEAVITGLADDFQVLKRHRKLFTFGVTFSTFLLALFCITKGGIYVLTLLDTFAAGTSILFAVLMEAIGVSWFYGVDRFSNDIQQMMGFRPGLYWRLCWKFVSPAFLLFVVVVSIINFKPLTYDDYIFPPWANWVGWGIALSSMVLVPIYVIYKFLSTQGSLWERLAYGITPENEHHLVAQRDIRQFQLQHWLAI
# A1 (h) = A1 (h) (Homo sapiens, UniProt P30542); conditions: 1.0E-05 M; A1 (h) (antagonist radioligand)
# CB2 (h) = CB2 (h) (Homo sapiens, UniProt P34972); assay: CB2 (h) (agonist radioligand), Eurofins assay 37
# [3] = system: sigma (non-selective) (h); conditions: compound concentration 1.0E-05 M
# M2 (h) = M2 (h) (Homo sapiens, UniProt P08172); assay: biochemical
# Sequence of M2 (h) (P08172 whole entry): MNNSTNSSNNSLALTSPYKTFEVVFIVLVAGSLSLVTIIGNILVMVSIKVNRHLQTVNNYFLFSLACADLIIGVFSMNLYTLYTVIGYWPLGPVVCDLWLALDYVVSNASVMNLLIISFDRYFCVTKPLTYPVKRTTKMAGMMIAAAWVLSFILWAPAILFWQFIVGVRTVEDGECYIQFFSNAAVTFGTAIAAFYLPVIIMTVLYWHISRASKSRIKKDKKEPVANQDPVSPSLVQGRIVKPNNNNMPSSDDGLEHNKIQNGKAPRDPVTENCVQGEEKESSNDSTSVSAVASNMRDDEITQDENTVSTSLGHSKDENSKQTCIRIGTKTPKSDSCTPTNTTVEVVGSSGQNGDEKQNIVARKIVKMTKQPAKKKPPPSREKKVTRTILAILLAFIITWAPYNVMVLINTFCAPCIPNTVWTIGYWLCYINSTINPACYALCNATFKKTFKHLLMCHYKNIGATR
# [4] = target: T2, Glutamate (Non-Selective) Rat Ion Channel Glycine (Strychnine-Insensitive) (Rattus norvegicus, UniProt P35439); assay: Glutamate (Non-Selective) Rat Ion Channel Glycine (Strychnine-Insensitive), Mass Spectrometry Binding, assay 5043
# T2 construct: Eurofins assay 5043
# cathepsin L (h) = target: T3, cathepsin L (h) (Homo sapiens, UniProt P07711); assay: Eurofins panel: cathepsin L (h) enzymatic activity; format: biochemical; conditions: 1.0E-05 M; cathepsin L (h)
# T3 construct: Eurofins (panel run by the vendor)
# T3 sequence (P07711 114-333): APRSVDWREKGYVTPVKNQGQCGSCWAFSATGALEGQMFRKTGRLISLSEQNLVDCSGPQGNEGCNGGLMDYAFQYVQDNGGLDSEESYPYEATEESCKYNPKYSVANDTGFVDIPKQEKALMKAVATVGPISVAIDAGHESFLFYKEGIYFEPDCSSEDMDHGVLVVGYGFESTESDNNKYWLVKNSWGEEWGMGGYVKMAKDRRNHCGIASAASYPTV
# ATPase (Na+/K+) = assay: Eurofins panel: ATPase (Na+/K+) enzymatic activity; format: biochemical; conditions: 1.0E-05 M
# [5] = target: human monoamine oxidase-B (MAO-B) (Homo sapiens, UniProt P27338)
# Sequence of human monoamine oxidase-B (MAO-B) (P27338 whole entry): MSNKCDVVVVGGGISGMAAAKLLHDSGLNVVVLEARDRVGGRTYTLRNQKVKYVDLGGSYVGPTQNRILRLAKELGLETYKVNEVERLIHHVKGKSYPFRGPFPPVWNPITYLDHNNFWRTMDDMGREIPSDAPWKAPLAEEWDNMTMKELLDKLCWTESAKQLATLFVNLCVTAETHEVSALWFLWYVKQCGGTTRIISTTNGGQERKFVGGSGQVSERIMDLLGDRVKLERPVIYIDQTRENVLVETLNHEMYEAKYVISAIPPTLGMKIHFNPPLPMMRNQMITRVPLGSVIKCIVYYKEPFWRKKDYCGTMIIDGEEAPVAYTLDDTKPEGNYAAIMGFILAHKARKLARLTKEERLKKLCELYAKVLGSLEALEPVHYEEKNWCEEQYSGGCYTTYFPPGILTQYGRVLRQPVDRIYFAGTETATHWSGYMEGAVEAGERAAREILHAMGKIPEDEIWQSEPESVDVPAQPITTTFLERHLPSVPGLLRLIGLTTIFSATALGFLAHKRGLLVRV
# kappa (h) (KOP) = kappa (h) (KOP) (Homo sapiens, UniProt P41145); assay: biochemical; format: binding
# 5-HT4e (h) = 5-HT4e (h) (Homo sapiens, UniProt Q13639); assay: Eurofins panel: 5-HT4e (h) (antagonist radioligand); conditions: 1.0E-05 M; 5-HT4e (h) (antagonist radioligand)
# [6] = target: carbonic anhydrase II (h) (Homo sapiens, UniProt P00918); conditions: 1.0E-05 M
# SKCa channel = conditions: compound concentration 1.0E-05 M
# M3 (h) = M3 (h) (Homo sapiens, UniProt P20309); assay: biochemical
# MT1 (ML1A) (h) = MT1 (ML1A) (h) (Homo sapiens, UniProt P48039); assay: MT1 (ML1A) (h) (agonist radioligand), Eurofins assay 1538
# Sequence of MT1 (ML1A) (h) (P48039 whole entry): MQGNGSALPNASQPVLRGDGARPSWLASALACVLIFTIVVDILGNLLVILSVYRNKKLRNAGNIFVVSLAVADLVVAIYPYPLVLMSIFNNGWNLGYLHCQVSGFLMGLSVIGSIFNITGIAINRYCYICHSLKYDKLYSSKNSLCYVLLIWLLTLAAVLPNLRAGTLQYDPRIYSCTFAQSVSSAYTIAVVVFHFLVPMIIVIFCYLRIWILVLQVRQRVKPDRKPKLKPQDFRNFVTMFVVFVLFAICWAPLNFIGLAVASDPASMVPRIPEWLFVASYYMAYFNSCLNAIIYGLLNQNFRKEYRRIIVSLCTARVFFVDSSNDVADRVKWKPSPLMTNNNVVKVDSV
# H3 (h) = H3 (h) (Homo sapiens, UniProt Q9Y5N1); assay: biochemical
# Sequence of H3 (h) (Q9Y5N1 whole entry): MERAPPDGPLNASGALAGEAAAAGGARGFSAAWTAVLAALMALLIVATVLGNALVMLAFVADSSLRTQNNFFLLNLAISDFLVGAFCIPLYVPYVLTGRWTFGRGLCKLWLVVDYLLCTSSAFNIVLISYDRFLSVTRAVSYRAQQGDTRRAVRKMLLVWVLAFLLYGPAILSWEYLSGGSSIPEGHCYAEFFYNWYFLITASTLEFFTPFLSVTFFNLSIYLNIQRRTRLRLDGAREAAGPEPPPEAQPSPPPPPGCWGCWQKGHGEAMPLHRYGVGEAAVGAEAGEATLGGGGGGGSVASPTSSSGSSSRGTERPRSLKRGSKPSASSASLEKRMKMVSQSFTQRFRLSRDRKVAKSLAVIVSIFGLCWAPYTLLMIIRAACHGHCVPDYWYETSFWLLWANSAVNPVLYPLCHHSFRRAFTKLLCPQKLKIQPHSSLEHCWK
# [7] = target: T4, GABAB(B1b/B2) Human GABA B GPCR (Homo sapiens, UniProt Q9UBS5); assay: GABAB(B1b/B2) Human GABA B GPCR Mass Spectrometry Binding (Antagonist Ligand) Assay, Cerep, assay 4699
# T4 construct: Eurofins (Cerep) assay 4699
# T4 sequence (Q9UBS5 1-844 isoform Q9UBS5-2): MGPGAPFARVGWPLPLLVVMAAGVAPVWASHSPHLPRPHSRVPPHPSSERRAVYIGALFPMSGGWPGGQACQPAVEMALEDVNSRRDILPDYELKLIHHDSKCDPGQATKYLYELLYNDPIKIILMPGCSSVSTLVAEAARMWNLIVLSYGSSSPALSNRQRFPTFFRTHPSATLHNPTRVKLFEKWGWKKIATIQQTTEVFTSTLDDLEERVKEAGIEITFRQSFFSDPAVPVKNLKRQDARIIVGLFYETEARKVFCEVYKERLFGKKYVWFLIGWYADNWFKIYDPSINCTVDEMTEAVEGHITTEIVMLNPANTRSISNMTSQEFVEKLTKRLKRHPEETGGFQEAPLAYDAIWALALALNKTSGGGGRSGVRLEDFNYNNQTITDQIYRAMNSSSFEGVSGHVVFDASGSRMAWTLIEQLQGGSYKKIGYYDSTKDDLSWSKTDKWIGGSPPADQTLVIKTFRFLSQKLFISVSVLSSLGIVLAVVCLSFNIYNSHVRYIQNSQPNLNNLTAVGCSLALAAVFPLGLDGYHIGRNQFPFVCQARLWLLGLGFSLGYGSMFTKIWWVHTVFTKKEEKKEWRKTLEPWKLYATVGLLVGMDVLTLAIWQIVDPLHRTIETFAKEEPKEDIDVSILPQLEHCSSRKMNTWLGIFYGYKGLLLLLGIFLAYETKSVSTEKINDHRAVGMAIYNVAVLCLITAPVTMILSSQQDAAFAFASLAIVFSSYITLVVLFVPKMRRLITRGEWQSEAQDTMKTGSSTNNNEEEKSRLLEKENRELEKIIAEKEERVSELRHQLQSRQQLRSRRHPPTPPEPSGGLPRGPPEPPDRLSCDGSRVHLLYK
# T4 sequence (O75899 42-941 partner): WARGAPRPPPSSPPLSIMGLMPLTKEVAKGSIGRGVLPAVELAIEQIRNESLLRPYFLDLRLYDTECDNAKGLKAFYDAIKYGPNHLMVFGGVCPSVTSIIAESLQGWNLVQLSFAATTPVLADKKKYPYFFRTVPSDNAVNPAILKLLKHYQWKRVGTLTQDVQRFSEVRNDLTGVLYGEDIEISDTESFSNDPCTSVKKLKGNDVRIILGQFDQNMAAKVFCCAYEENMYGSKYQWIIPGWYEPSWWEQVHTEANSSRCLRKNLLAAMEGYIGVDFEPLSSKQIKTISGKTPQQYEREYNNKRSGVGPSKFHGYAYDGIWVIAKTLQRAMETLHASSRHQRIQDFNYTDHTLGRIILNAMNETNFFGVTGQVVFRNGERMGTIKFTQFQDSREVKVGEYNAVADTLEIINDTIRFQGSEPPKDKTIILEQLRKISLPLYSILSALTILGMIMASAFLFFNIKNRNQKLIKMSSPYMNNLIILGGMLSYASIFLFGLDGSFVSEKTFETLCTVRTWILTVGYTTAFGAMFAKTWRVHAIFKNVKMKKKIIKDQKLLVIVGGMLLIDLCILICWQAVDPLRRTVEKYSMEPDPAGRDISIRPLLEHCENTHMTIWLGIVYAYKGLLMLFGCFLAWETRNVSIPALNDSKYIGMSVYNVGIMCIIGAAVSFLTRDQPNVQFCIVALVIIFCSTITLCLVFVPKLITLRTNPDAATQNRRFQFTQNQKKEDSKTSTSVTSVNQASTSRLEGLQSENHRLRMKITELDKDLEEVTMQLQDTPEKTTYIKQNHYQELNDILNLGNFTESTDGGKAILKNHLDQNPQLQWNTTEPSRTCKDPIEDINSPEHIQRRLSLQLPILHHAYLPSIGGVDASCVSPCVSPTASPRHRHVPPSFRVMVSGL
# tyrosine hydroxylase = target: T5, tyrosine hydroxylase (Rattus norvegicus, UniProt P04177); assay: Eurofins panel: tyrosine hydroxylase; format: biochemical; conditions: compound concentration 1.0E-05 M
# T5 construct: purchased Eurofins (CNS SafetyScreen panel, contract assay)
# T5 sequence (P04177 whole entry): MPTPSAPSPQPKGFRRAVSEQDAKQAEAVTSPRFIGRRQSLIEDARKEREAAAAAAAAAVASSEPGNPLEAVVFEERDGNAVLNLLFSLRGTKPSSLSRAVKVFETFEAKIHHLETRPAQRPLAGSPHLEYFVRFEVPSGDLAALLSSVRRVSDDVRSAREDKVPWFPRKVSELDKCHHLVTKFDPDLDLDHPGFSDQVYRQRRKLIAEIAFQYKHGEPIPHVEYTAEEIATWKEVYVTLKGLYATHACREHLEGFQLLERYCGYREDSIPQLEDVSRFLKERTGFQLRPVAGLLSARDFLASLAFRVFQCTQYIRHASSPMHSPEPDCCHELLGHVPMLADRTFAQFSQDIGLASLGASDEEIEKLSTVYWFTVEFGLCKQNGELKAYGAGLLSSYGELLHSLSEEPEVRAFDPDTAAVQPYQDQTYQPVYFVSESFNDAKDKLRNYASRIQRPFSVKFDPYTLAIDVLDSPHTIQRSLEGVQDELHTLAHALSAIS
# Na+ channel (site 2) = assay: Eurofins panel: Na+ channel (site 2) (antagonist radioligand); format: binding; conditions: compound concentration 1.0E-05 M
# 5-HT7 (h) = 5-HT7 (h) (Homo sapiens, UniProt P34969); conditions: 1.0E-05 M; 5-HT7 (h) (agonist radioligand)
compound,measurement,setting,value
"Fc1nc(N2CCOCC2)ccc1-c1cc2ccccc2[nH]1 [Compound 75, 4-(6-Fluoro-5-(1H-indol-2-yl)pyridin-2-yl)morpholine]","% Inhibition, Specific binding",A2B (h),-1.19E+01%
same,inhibition at 10 µM,[1],8.53%
same,"% Inhibition, Enzymatic activity",p38alpha kinase (h),10.339%
same,"% Inhibition, Specific binding",5-HT3 (h),0.4312%
same,"% Inhibition, Specific binding",AMPA,4.317%
same,inhibition at 10 µM,IRK (h) (InsR),-5.12%
same,inhibition at 10 µM,ETA (h),4.29%
same,inhibition at 96 of 98 CNS targets,98 CNS protein targets,≤ 25.3%
same,inhibition at 10 µM,M5 (h),1.64%
same,"% Inhibition, Specific binding",B2 (h),-1.15E+01%
same,"% Inhibition, Specific binding",[2],-1.11E+01%
same,"% Inhibition, Specific binding",A1 (h),-7.64E+00%
same,inhibition at 10 µM,CB2 (h),-17.9%
same,"% Inhibition, Specific binding",[3],-4.77E+00%
same,inhibition at 10 µM,M2 (h),-12.8%
same,inhibition at 10 µM,[4],3.36%
same,"% Inhibition, Enzymatic activity",cathepsin L (h),15.4729%
same,"% Inhibition, Enzymatic activity",ATPase (Na+/K+),-2.26E+00%
same,inhibition at human MAO-B (vs deprenyl),[5],61%
same,inhibition at 10 µM,kappa (h) (KOP),7.11%
same,"% Inhibition, Specific binding",5-HT4e (h),10.412%
same,"% Inhibition, Enzymatic activity",[6],-2.68E+01%
same,"% Inhibition, Specific binding",SKCa channel,0.9001%
same,inhibition at 10 µM,M3 (h),-12.5%
same,inhibition at 10 µM,MT1 (ML1A) (h),13%
same,inhibition at 10 µM,H3 (h),-4.9%
same,inhibition at 10 µM,[7],18.1%
same,"% Inhibition, Enzymatic activity",tyrosine hydroxylase,-8.91E+00%
same,"% Inhibition, Specific binding",Na+ channel (site 2),-1.89E+01%
same,"% Inhibition, Specific binding",5-HT7 (h),-1.16E+00%
